This note sets out measurements from patent US20250179103A1, “6-OXODECAHYDROPYRROLO[1,2-A][1,5]DIAZOCINE AND 6-OXODECAHYDRO-4H-PYRROLO[2,1-D][1,5]THIAZOCINE DERIVATIVES AS STAT3 AND STAT6 MODULATORS FOR THE TREATMENT OF CANCER AND INFLAMMATORY CONDITIONS” (Recludix Pharma, Inc., priority 2022, published 2025).

Molecules are shown by their SMILES.

Assay [1] deals with pY641-STAT6 in Peripheral Blood Mononuclear Cells (PBMC). Description: MSD-pSTAT-PBMC Assay (pSTAT6, IL-4 stimulated). It counts as cell-based, Human. Conditions: Homo sapiens, compound 3 hrs, then 1 ng/mL IL-4 for 10 min. Put shortly:
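Phospho-STAT readout used MSD electrochemiluminescence with total STAT3 or STAT6 capture in lysates of cryopreserved human PBMCs. Cells had 3 h compound exposure before a 10 min cytokine pulse: IL-6 10 ng/mL for pSTAT3, IL-4 1 ng/mL for pSTAT6. IC50 came from background-subtracted, DMSO-normalised signal, with categories A≤100 nM up to D>3 μM.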

Assay [2] deals with pY705-STAT3 in Peripheral Blood Mononuclear Cells (PBMC). In words: MSD-pSTAT-PBMC Assay (pSTAT3, IL-6 stimulated). It counts as cell-based, Human. To be noted: Homo sapiens, compound 3 hrs, then 10 ng/mL IL-6 for 10 min. An excerpt: Cryopreserved Peripheral Blood Mononuclear Cells (PBMC) are from AllCells. Recombinant Human IL-4 and IL-6 are from Peprotech. Mouse monoclonal anti-STAT3 antibody, rabbit monoclonal anti-pY705-STAT3 antibody, rabbit monoclonal Anti-pY641-STAT6 antibody, and lysis buffer are from Cell Signaling Technology (CST). Mouse monoclonal anti-STAT6 antibody is from BioLegend. Assay plates, blocker, and anti-rabbit secondary antibody are from Meso Scale Discovery (MSD).
Cryopreserved PBMCs were thawed out and allowed to recover overnight in IMDM+10% heat-inactivated FBS prior to plating 50,000 (STAT3) or 25,000 (STAT6) cells per well in 96-well U-bottom tissue culture plates. Cells were treated with compound for 3 hrs, then stimulated with 10 ng/mL IL-6 (STAT3) or 1 ng/mL IL-4 (STAT6) for 10 min. Cells were then spun down and washed with ice-cold PBS prior to lysing the cell pellet with 1× lysis buffer (CST) with 1×HALT protease and phosphatase inhibitor cocktail (Thermo). Lysates were transferred to and incubated overnight at 4° C. with shaking in QuickPlex 96-well high bind assay plates (MSD) pre-coated overnight with 30 μL per well of 0.6 μg/mL mouse monoclonal anti-STAT3 antibody (STAT3) or 2 μg/mL mouse monoclonal anti-STAT6 antibody (STAT6) in 1×PBS, and pre-blocked for 1 hour with 3% Blocker-A (MSD). Captured protein in the assay plates were then washed and probed with 25 μL per well of 0.25 μg/ml rabbit monoclonal anti-pY705-STAT3 antibody (STAT3) or […] rabbit monoclonal Anti-pY641-STAT6 antibody (STAT6) in 1% Blocker-A for 1 hour at room temperature with shaking, then washed and probed with 25 ul per well of 1 ug/ml Sulfo-TAG Labeled Goat Anti-Rabbit Antibody (MSD) in 1% Blocker-A for 1 hour at room temperature with shaking. Assay plates were then washed and 150 μL of 1× Read Buffer-T (MSD) was added to each well prior to reading on an SQ120 MSD Plate Reader. Assay signal from each sample was subtracted by the signal from unstimulated control wells and normalized to DMSO control wells. IC50 values were calculated using Graph Pad Prism Dose-Response Nonlinear Regression with variable slope. For both pSTAT3 and pSTAT6 A=≤100 nM; B=>100-1000 nM; C=>1000-3000 nM; and D=>3 μM.

As for `COCCOC(=O)OCOP(=O)(OCOC(=O)OCCOC)C(F)(F)c1ccc2sc(C(=O)N[C@H]3CN(C(C)=O)CC[C@H]4CC[C@@H](C(=O)N(C)c5ccccc5)N4C3=O)cc2c1` [Compound 283, ((((2-(((5S,8S, 10aR)-3-acetyl-8-(methyl (phenyl)carbamoyl)-6-oxodecahydro-pyrrolo[1,2-a][1,5]diazocin-5-yl)carbamoyl)benzo[b]thiophen-5-yl)difluoro-methyl)phos-phoryl)bis(oxy)) bis(methylene) bis(2-methoxyethyl) bis(carbonate)], the IC50 was 1000 to 3000 nM in assay [1] and more than 3000 nM in assay [2].

On to `CC(=O)N1CC[C@H]2CC[C@@H](C(=O)N(C)c3ccccc3)N2C(=O)[C@@H](NC(=O)c2cc3cc(C(F)(F)P(=O)(OCOC(=O)OCC(C)C)OCOC(=O)OCC(C)C)ccc3s2)C1` [Compound 284, ((((2-(((5S,8S, 10aR)-3-acetyl-8-(methyl (phenyl)carbamoyl)-6-oxodecahydro-pyrrolo[1,2-a][1,5]diazocin-5-yl)carbamoyl)benzo[b]thiophen-5-yl)difluoro-methyl)phos-phoryl)bis(oxy)) bis(methylene) diisobutyl bis(carbonate)], for which the IC50 in assay [1] is not above 100 nM; in assay [2], 100 to 1000 nM.

In the case of `CCCOC(=O)OCOP(=O)(OCOC(=O)OCCC)C(F)(F)c1ccc2sc(C(=O)N[C@H]3CN(C(C)=O)CC[C@H]4CC[C@@H](C(=O)N(C)c5ccccc5)N4C3=O)cc2c1` [Compound 286, ((((2-(((5S, 8S,10aR)-3-acetyl-8-(methyl (phenyl)carbamoyl)-6-oxodecahydro-pyrrolo[1,2-a][1,5]diazocin-5-yl)carbamoyl)benzo[b]thiophen-5-yl)difluoro-methyl)phosphoryl)bis(oxy)) bis(methylene) dipropyl bis(carbonate)], the IC50 in assay [1] and in assay [2] was 100 to 1000 nM throughout.

In the case of `COCC(C)(C)OC(=O)OCOP(=O)(OCOC(=O)OC(C)(C)COC)C(F)(F)c1ccc2sc(C(=O)N[C@H]3CN(C(C)=O)CC[C@H]4CC[C@@H](C(=O)N(C)c5ccccc5)N4C3=O)cc2c1` [Compound 287, ((((2-(((5S, 8S,10aR)-3-acetyl-8-(methyl (phenyl)carbamoyl)-6-oxodecahydro-pyrrolo[1,2-a][1,5]diazocin-5-yl)carbamoyl)benzo[b]thiophen-5-yl)difluoro-methyl)phosphoryl)bis(oxy)) bis(methylene) bis(1-methoxy-2-methylpropan-2-yl) bis(carbonate)], the concentration for half-maximal inhibition (IC50) in assay [1] and in assay [2] was more than 3000 nM throughout.

Regarding `COC(=O)[C@@H]1CCCN1C(=O)OCOP(=O)(OCOC(=O)N1CCC[C@H]1C(=O)OC)C(F)(F)c1ccc2sc(C(=O)N[C@H]3CN(C(C)=O)CC[C@H]4CC[C@@H](C(=O)N(C)c5ccccc5)N4C3=O)cc2c1` [Compound 288, O′1,O1-(((((2-(((5S, 8S,10aR)-3-acetyl-8-(methyl (phenyl)carbamoyl)-6-oxodecahydro-pyrrolo[1,2-a][1,5]diazocin-5-yl)carbamoyl)benzo[b]thiophen-5-yl)difluoro-methyl)phos-phoryl)bis(oxy))bis (methylene)) 2,2′-dimethyl (2S,2′S)-bis (pyrrolidine-1,2-dicarboxylate)], the IC50 in assay [1] and in assay [2] was more than 3000 nM each time.

In the case of `CC(=O)N1CC[C@H]2CC[C@@H](C(=O)N(C)c3ccccc3)N2C(=O)[C@@H](NC(=O)c2cc3cc(C(F)(F)P(=O)(OCCSC(=O)C(C)(C)C)Oc4ccccc4)ccc3s2)C1` (stereo partly drawn) [Compound 289, S-(2-((((2-(((5S,8S, 10aR)-3-acetyl-8-(methyl (phenyl)carbamoyl)-6-oxodecahydro-pyrrolo[1,2-a][1,5]diazocin-5-yl)carbamoyl)benzo[b]thiophen-5-yl)difluoro-methyl) (phenoxy)phosphoryl)oxy)ethyl)2,2-dimethylpro-panethioate], the 50% inhibitory concentration (IC50) in assay [1] and in assay [2] was more than 3000 nM in each case.

In the case of `CC(=O)N1CC[C@H]2CC[C@@H](C(=O)N(C)c3ccc4nnccc4c3)N2C(=O)[C@@H](NC(=O)c2cc3cc(C(F)(F)P(=O)(OCOC(=O)C(C)(C)C)OCOC(=O)C(C)(C)C)ccc3s2)C1` [Compound 290, ((((2-(((5S,8S, 10aR)-3-acetyl-8-(cinnolin-6-yl(methyl)carbamoyl)-6-oxodecahydro-pyrrolo[1,2-a][1,5]diazocin-5-yl)carbamoyl)benzo[b]thiophen-5-yl)difluoro-methyl)phos-phoryl)bis(oxy)) bis(methylene) bis(2,2-dimethylpro-panoate)], the IC50 lay within 100 to 1000 nM in assay [1] and 1000 to 3000 nM in assay [2].

Consider `CC(=O)N1CC[C@H]2CC[C@@H](C(=O)N(C)c3ccccc3)N2C(=O)[C@@H](NC(=O)c2cc3cc(C(F)(F)P(=O)(OCCSC(=O)C(C)(C)C)OCCSC(=O)C(C)(C)C)ccc3s2)C1` [Compound 291, S,S′-(((((2-(((5S,8S, 10aR)-3-acetyl-8-(methyl (phenyl)carbamoyl)-6-oxodecahydro-pyrrolo[1,2-a][1,5]diazocin-5-yl)carbamoyl)benzo[b]thiophen-5-yl)difluoro-methyl)phos-phoryl)bis(oxy))bis(ethane-2,1-diyl)) bis(2,2-dimethylpro-panethioate)], for which the IC50 in assay [1] and in assay [2] was more than 3000 nM in each case.

With `CCCN(CCC)C(=O)OCOP(=O)(OCOC(=O)N(CCC)CCC)C(F)(F)c1ccc2sc(C(=O)N[C@@H]3CN(C(C)=O)CC[C@@H]4CC[C@H](C(=O)N(C)c5ccccc5)N4C3=O)cc2c1` [Compound 292, ((((2-(((5R,8R, 10aS)-3-acetyl-8-(methyl (phenyl)carbamoyl)-6-oxodecahydro-pyrrolo[1,2-a][1,5]diazocin-5-yl)carbamoyl)benzo[b]thiophen-5-yl)difluoro-methyl)phos-phoryl)bis(oxy)) bis(methylene) bis(dipropyl-carbamate)], the IC50 in assay [1] and in assay [2] was more than 3000 nM throughout.

Turning to `CCCOC(=O)OC(C)OP(=O)(OC(C)OC(=O)OCCC)C(F)(F)c1ccc2sc(C(=O)N[C@H]3CN(C(C)=O)CC[C@H]4CC[C@@H](C(=O)N(C)c5ccccc5)N4C3=O)cc2c1` (stereo partly drawn) [Compound 293, ((((2-(((5S,8S, 10aR)-3-acetyl-8-(methyl (phenyl)carbamoyl)-6-oxodecahydro-pyrrolo[1,2-a][1,5]diazocin-5-yl)carbamoyl)benzo[b]thiophen-5-yl)difluoro-methyl)phos-phoryl)bis(oxy)) bis(ethane-1,1-diyl) dipropyl bis(carbonate)], the IC50 in assay [1] and in assay [2] was more than 3000 nM in each case.

Turning to `CC(=O)N1CC[C@H]2CC[C@@H](C(=O)Nc3ccc4nnccc4c3)N2C(=O)[C@@H](NC(=O)c2cc3cc(C(F)(F)P(=O)(OCOC(=O)C(C)(C)C)OCOC(=O)C(C)(C)C)ccc3s2)C1` [Compound 294, ((((2-(((5S,8S, 10aR)-3-acetyl-8-(cinnolin-6-ylcarbamoyl)-6-oxodecahydro-pyrrolo[1,2-a][1,5]diazocin-5-yl)carbamoyl)benzo[b]thiophen-5-yl)difluoro-methyl)phos-phoryl)bis(oxy)) bis(methylene) bis(2,2-dimethylpro-panoate)], the IC50 in assay [1] and in assay [2] was 100 to 1000 nM in each case.

For `CC(=O)N1CC[C@H]2CC[C@@H](C(=O)N(C)c3ccccc3)N2C(=O)[C@@H](NC(=O)c2cc3cc(C(F)P(=O)(OCOC(=O)C(C)(C)C)OCOC(=O)C(C)(C)C)ccc3s2)C1` (stereo partly drawn) [Compound 295, ((((2-(((5S,8S, 10aR)-3-acetyl-8-(methyl (phenyl)carbamoyl)-6-oxodecahydro-pyrrolo[1,2-a][1,5]diazocin-5-yl)carbamoyl)benzo[b]thiophen-5-yl)fluoro-methyl)phos-phoryl)bis(oxy))bis (methylene) bis(2,2-dimethylpro-panoate)], the IC50 in assay [1] and in assay [2] was 100 to 1000 nM each time.

As usually defined, the IC50 is the midpoint of a concentration-inhibition curve.
